Data from ChEMBL document CHEMBL3885881, “DrugMatrix”.

Species on record: Rattus norvegicus
Test: DrugMatrix - Regimen: Daily Repeat
Assay type: toxicity, organism-based, Sprague-Dawley
Set-up: regimen Daily Repeat, gender Male, age 6-8 weeks
Settings: in vivo, sc, route subcutaneous, […]; for ABSOLUTE BASOPHIL / ABSOLUTE EOSINOPHIL / ABSOLUTE LYMPHOCYTE / ABSOLUTE MONOCYTE / ABSOLUTE SEGMENTED NEUTROPHIL / BASOPHIL / EOSINOPHIL / ERYTHROCYTE COUNT / HEMATOCRIT / HEMOGLOBIN / LEUKOCYTE COUNT / LYMPHOCYTE / MEAN CORPUSCULAR HEMOGLOBIN / MEAN CORPUSCULAR HEMOGLOBIN CONCENTRATION / MEAN CORPUSCULAR VOLUME / MONOCYTE / NEUTROPHIL / NUCLEATED RED BLOOD CELLS / PLATELET COUNT: tissue Blood; for ALANINE AMINOTRANSFERASE / ALBUMIN / ALKALINE PHOSPHATASE / ASPARTATE AMINOTRANSFERASE / BLOOD UREA NITROGEN / CARBON DIOXIDE / CHLORIDE / CHOLESTEROL / CREATINE PHOSPHOKINASE / CREATININE / GLUCOSE / LACTATE DEHYDROGENASE / LIPASE / PHOSPHORUS / POTASSIUM / SODIUM / TOTAL BILIRUBIN / TOTAL PROTEIN / URIC ACID: tissue Plasma
[1] = 0 mg/kg, 72 h, dose level Control, time 3 day
[2] = 0 mg/kg, 120 h, dose level Control, time 5 day
[3] = 22 mg/kg, 72 h, dose level Low, time 3 day
[4] = 22 mg/kg, 120 h, dose level Low, time 5 day

## O=C(O)c1ccccc1O [SALICYLIC ACID]
[1]
  ABSOLUTE BASOPHIL: 0 CELLS/uL
  ABSOLUTE EOSINOPHIL: 0 CELLS/uL
  ABSOLUTE LYMPHOCYTE: 10887 CELLS/uL
  ABSOLUTE MONOCYTE: 56 CELLS/uL
  ABSOLUTE SEGMENTED NEUTROPHIL: 1057 CELLS/uL
  BASOPHIL: 0%
  EOSINOPHIL: 0%
  ERYTHROCYTE COUNT: 5.31 x10E6/uL
  HEMATOCRIT: 33.78%
  HEMOGLOBIN: 13.4 G/DL
  LEUKOCYTE COUNT: 12 x10E3/uL
  LYMPHOCYTE: 91.17%
  MEAN CORPUSCULAR HEMOGLOBIN: 25.25 pg
  MEAN CORPUSCULAR HEMOGLOBIN CONCENTRATION: 39.65 G/DL
  MEAN CORPUSCULAR VOLUME: 63.65 fL
  MONOCYTE: 0.5%
  NEUTROPHIL: 8.33%
  NUCLEATED RED BLOOD CELLS: 0 /100WBC
  PLATELET COUNT: 1142 x10E3/uL
  ALANINE AMINOTRANSFERASE: 57.17 u/L
  ALBUMIN: 4.28 G/DL
  ALKALINE PHOSPHATASE: 425.83 u/L
  ASPARTATE AMINOTRANSFERASE: 93.83 u/L
  BLOOD UREA NITROGEN: 14.17 mg/dL
  CARBON DIOXIDE: 33.5 mmol/L
  CHLORIDE: 100 MEQ/L
  CHOLESTEROL: 70.33 mg/dL
  CREATINE PHOSPHOKINASE: 438.67 u/L
  CREATININE: 0.19 mg/dL
  GLUCOSE: 138.5 mg/dL
  LACTATE DEHYDROGENASE: 190.17 u/L
  LIPASE: 9.83 u/L
  PHOSPHORUS: 11.05 mg/dL
  POTASSIUM: 6.59 MEQ/L
  SODIUM: 143.58 MEQ/L
  TOTAL BILIRUBIN: 0.22 mg/dL
  TOTAL PROTEIN: 6.15 G/DL
  URIC ACID: 1.3 mg/dL
[2]
  ABSOLUTE BASOPHIL: 0 CELLS/uL
  ABSOLUTE EOSINOPHIL: 91.17 CELLS/uL
  ABSOLUTE LYMPHOCYTE: 11847.67 CELLS/uL
  ABSOLUTE MONOCYTE: 172.83 CELLS/uL
  ABSOLUTE SEGMENTED NEUTROPHIL: 1105 CELLS/uL
  BASOPHIL: 0%
  EOSINOPHIL: 0.67%
  ERYTHROCYTE COUNT: 5.35 x10E6/uL
  HEMATOCRIT: 33.65%
  HEMOGLOBIN: 13.42 G/DL
  LEUKOCYTE COUNT: 13.22 x10E3/uL
  LYMPHOCYTE: 89.83%
  MEAN CORPUSCULAR HEMOGLOBIN: 25.12 pg
  MEAN CORPUSCULAR HEMOGLOBIN CONCENTRATION: 39.9 G/DL
  MEAN CORPUSCULAR VOLUME: 63 fL
  MONOCYTE: 1.33%
  NEUTROPHIL: 8.17%
  NUCLEATED RED BLOOD CELLS: 0 /100WBC
  PLATELET COUNT: 1347.83 x10E3/uL
  ALANINE AMINOTRANSFERASE: 50 u/L
  ALBUMIN: 4.1 G/DL
  ALKALINE PHOSPHATASE: 329.17 u/L
  ASPARTATE AMINOTRANSFERASE: 77.17 u/L
  BLOOD UREA NITROGEN: 16.83 mg/dL
  CARBON DIOXIDE: 34.83 mmol/L
  CHLORIDE: 99.83 MEQ/L
  CHOLESTEROL: 75.67 mg/dL
  CREATINE PHOSPHOKINASE: 295.83 u/L
  CREATININE: 0.18 mg/dL
  GLUCOSE: 156.33 mg/dL
  LACTATE DEHYDROGENASE: 166.83 u/L
  LIPASE: 9.83 u/L
  PHOSPHORUS: 12.18 mg/dL
  POTASSIUM: 6.69 MEQ/L
  SODIUM: 143.97 MEQ/L
  TOTAL BILIRUBIN: 0.22 mg/dL
  TOTAL PROTEIN: 6.05 G/DL
  URIC ACID: 1.6 mg/dL
[3]
  ABSOLUTE BASOPHIL: 0 CELLS/uL
  ABSOLUTE EOSINOPHIL: 26.67 CELLS/uL
  ABSOLUTE LYMPHOCYTE: 6989.67 CELLS/uL
  ABSOLUTE MONOCYTE: 0 CELLS/uL
  ABSOLUTE SEGMENTED NEUTROPHIL: 550.33 CELLS/uL
  BASOPHIL: 0%
  EOSINOPHIL: 0.33%
  ERYTHROCYTE COUNT: 5.05 x10E6/uL
  HEMATOCRIT: 33.17%
  HEMOGLOBIN: 13.07 G/DL
  LEUKOCYTE COUNT: 7.57 x10E3/uL
  LYMPHOCYTE: 92.33%
  MEAN CORPUSCULAR HEMOGLOBIN: 25.9 pg
  MEAN CORPUSCULAR HEMOGLOBIN CONCENTRATION: 39.43 G/DL
  MEAN CORPUSCULAR VOLUME: 65.6 fL
  MONOCYTE: 0%
  NEUTROPHIL: 7.33%
  NUCLEATED RED BLOOD CELLS: 0 /100WBC
  PLATELET COUNT: 1158.33 x10E3/uL
  ALANINE AMINOTRANSFERASE: 58.33 u/L
  ALBUMIN: 4.43 G/DL
  ALKALINE PHOSPHATASE: 511.33 u/L
  ASPARTATE AMINOTRANSFERASE: 103 u/L
  BLOOD UREA NITROGEN: 13.33 mg/dL
  CARBON DIOXIDE: 32 mmol/L
  CHLORIDE: 102 MEQ/L
  CHOLESTEROL: 71 mg/dL
  CREATINE PHOSPHOKINASE: 208.67 u/L
  CREATININE: 0.19 mg/dL
  GLUCOSE: 141.33 mg/dL
  LACTATE DEHYDROGENASE: 161.67 u/L
  LIPASE: 10 u/L
  PHOSPHORUS: 12.97 mg/dL
  POTASSIUM: 6.87 MEQ/L
  SODIUM: 150.3 MEQ/L
  TOTAL BILIRUBIN: 0.2 mg/dL
  TOTAL PROTEIN: 6.27 G/DL
  URIC ACID: 0.83 mg/dL
[4]
  ABSOLUTE BASOPHIL: 0 CELLS/uL
  ABSOLUTE EOSINOPHIL: 207.33 CELLS/uL
  ABSOLUTE LYMPHOCYTE: 12679.33 CELLS/uL
  ABSOLUTE MONOCYTE: 80 CELLS/uL
  ABSOLUTE SEGMENTED NEUTROPHIL: 1400 CELLS/uL
  BASOPHIL: 0%
  EOSINOPHIL: 1.33%
  ERYTHROCYTE COUNT: 5.41 x10E6/uL
  HEMATOCRIT: 34.5%
  HEMOGLOBIN: 13.87 G/DL
  LEUKOCYTE COUNT: 14.37 x10E3/uL
  LYMPHOCYTE: 88%
  MEAN CORPUSCULAR HEMOGLOBIN: 25.6 pg
  MEAN CORPUSCULAR HEMOGLOBIN CONCENTRATION: 40.23 G/DL
  MEAN CORPUSCULAR VOLUME: 63.73 fL
  MONOCYTE: 0.67%
  NEUTROPHIL: 10%
  NUCLEATED RED BLOOD CELLS: 0 /100WBC
  PLATELET COUNT: 1310 x10E3/uL
  ALANINE AMINOTRANSFERASE: 52.67 u/L
  ALBUMIN: 4.17 G/DL
  ALKALINE PHOSPHATASE: 362.33 u/L
  ASPARTATE AMINOTRANSFERASE: 87.67 u/L
  BLOOD UREA NITROGEN: 16.33 mg/dL
  CARBON DIOXIDE: 30.33 mmol/L
  CHLORIDE: 105.67 MEQ/L
  CHOLESTEROL: 78.33 mg/dL
  CREATINE PHOSPHOKINASE: 263.33 u/L
  CREATININE: 0.18 mg/dL
  GLUCOSE: 153.33 mg/dL
  LACTATE DEHYDROGENASE: 272.67 u/L
  LIPASE: 9 u/L
  PHOSPHORUS: 13.37 mg/dL
  POTASSIUM: 7.11 MEQ/L
  SODIUM: 149.4 MEQ/L
  TOTAL BILIRUBIN: 0.2 mg/dL
  TOTAL PROTEIN: 6.07 G/DL
  URIC ACID: 1.5 mg/dL
